# Where two headings read alike, the source gives them in different places.
# What was measured:
# Assay type in all cases: in vivo
# [1] = test system: eclipta prostrata; assay: Indoor virulence and combined effect, greenhouse pot test, pre-emergence soil spray treatment, fresh weight inhibition
# Experimental: (§1) The active ingredients A and B are respectively screened and an indoor combined effect of the composition on weeds was evaluated by an indoor test and a field test, to determine a combined effect of the composition on weeds.
# (§2) Quantitative seeds of Poaceae weeds (echinochloa crusgalli, Digitaria sanguinalis, setaria viridis, Eleusine indica, avena fatua, alopecurus japonicus, alopecurus aequalis, Lolium multiflorum) and broadleaf weeds (eclipta prostrata, rorippa dubia, Abutilon theophrasti, conyza canadensis, veronica persica, myosoton aquaticum, polygonum lapathifolium, galium aparine var. tenerum, alisma plantago-aquatica, geranium carolinianum) were sown in paper cup containing nutrient soil with a diameter of 7 cm, covered with soil for 1 cm after sowing. After pressing and watering, they were cultured in a greenhouse according to a conventional method. Poaceae weeds grew to 3˜4 leaf stage, broad-leaved weeds grew to 4˜6 leaf stage, spraying treatment to both stem and leaf was performed; and pre-seedling soil spray treatment was performed 24 hours after sowing. Following an experimental design dosage, a WP-2000 walking spray tower (spindle speed 96 mm/r, spray height 200 mm, effective spray amplitude of nozzle 350 mm, nozzle flow rate 390 mL/min, nozzle walking speed 210 mm/s) was used for the spray treatment. The experiment was repeated three times. After being treated, a sample material is placed in an operation hall, and after the drug solution is naturally dried out, the sample material is placed in a greenhouse and managed according to the conventional method. A reaction of weeds to the drug agent is observed and recorded, and a regularly visual check of a control effect of the drug agent on weeds was performed after the treatment.
# (§3) All of original drugs were using acetone as a solvent, being diluted with 0.1 wt % emulsifier of Tween-80 aqueous solution, and being diluted right before using.
# (§4) When determining a ratio or content of the active ingredient A and the active ingredient B, it should be measured from characteristics of action of both agents and virulence thereof, as well as the main purpose of use of a formula shall also be considered in. In the present study, on a basis of previous pre-test, the dosages of the active ingredient A and the active ingredient B were set, when being used alone and mixed, as shown in the following table. Water containing no agent, but containing the same solvent and emulsifier was used as a blank control.
# (§5) Repeat 4 times for each treatment, 3 pots per treatment each time and 30 weed seeds were sown for each pot.
# (§6) Adopting an absolute number survey method, using a blade to cut the whole seedling of surviving weed along soil surface, and weighting the fresh weight of the weed with an analytical balance. For weeds that had died, counting the fresh weight as zero.
# (§7) Survey period and frequency: 21 days after the treatment, total 1 investigation.
# (§8) The theoretical fresh weight inhibition rate (E0-Expected Efficacy=[…]) of each treatment combination was calculated by Gowing method, and then compared with the measured inhibition rate (E-Observed Efficacy) to evaluate the combined effect type of both on weeds. When E-E0 value was greater than 10%, it was counted as a synergistic effect, less than −10%, it was counted as an antagonistic effect, and between −10%˜10%, it was counted as an additive effect. According to a plurality of factors including an actual control efficacy, a herbicide characteristic, a formula balance and other factors to determine the best ratio. In the formula, X is the fresh weight inhibition rate of the ingredient A at a dosage of P; Y is the fresh weight inhibition rate of the active ingredient B at a dosage of Q.
# (§9) The statistical results are shown in Table 1 to Table 44 below, except for those marked clearly as “pre-emergence treatment”, all others are “post-emergence treatment”. […]
# [2] = test system: digitaria sanguinalis; assay: as above
# Experimental: as §1, §2, §3, §4, §5, §6, §7, §8, §9
# [3] = test system: setaria viridis; assay: Indoor virulence and combined effect, greenhouse pot test, post-emergence stem and leaf spray, fresh weight inhibition; details: for inhibition at 750 g/ha: 750 g a.i./ha; for Fresh weight inhibition rate %, B single agent: Table 10
# Experimental: as §1
# as §2, with “Following an experimental design dosage, a WP-2000 walking spray tower (spindle speed 96 mm/r, spray height 200 mm, effective spray amplitude of nozzle 350 mm, nozzle flow rate 390 mL/min, nozzle walking speed 210 mm/s) was used for the spray treatment.” left out, “method.” for “method. A reaction of weeds to the drug agent is observed and recorded, and a regularly visual check of a control effect of the drug agent on weeds was performed after the treatment.”
# as §3, §4, §5, §6, §7
# When E-E0 value was greater than 10%, it was counted as a synergistic effect, less than −10%, it was counted as an antagonistic effect, and between −10%˜10%, it was counted as an additive effect. […] In the formula, X is the fresh weight inhibition rate of the ingredient A at a dosage of P; Y is the fresh weight inhibition rate of the active ingredient B at a dosage of Q.
# [4] = test system: alopecurus japonicus; assay: as above; details: for inhibition at 25 g/ha: 25 g a.i./ha; for Fresh weight inhibition rate %, B single agent: Table 25
# Experimental: as §1, §2, §3, §4, §5, §6, §7, §8, §9
# [5] = test system: eleusine indica; assay: Indoor virulence and combined effect, greenhouse pot test, pre-emergence soil spray treatment, fresh weight inhibition
# Experimental: as §1, §2, §3, §4, §5, §6, §7, §8, §9
compound,measurement,setting,value
CCc1cccc(C)c1N(C(=O)CCl)[C@@H](C)COC [S-metolachlor],"Fresh weight inhibition rate %, B single agent","[1]; Table 28, B 300 g a.i./ha",45.64%
same,"Fresh weight inhibition rate %, B single agent","[1]; Table 28, B 450 g a.i./ha",57.41%
same,"Fresh weight inhibition rate %, B single agent","[1]; Table 28, B 600 g a.i./ha",61.78%
same,"Fresh weight inhibition rate %, B single agent","[1]; Table 28, B 750 g a.i./ha",70.72%
CCOCN(C(=O)CCl)c1c(C)cccc1CC [acetochlor],"Fresh weight inhibition rate %, B single agent","[2]; Table 40, B 250 g a.i./ha",55.88%
same,"Fresh weight inhibition rate %, B single agent","[2]; Table 40, B 375 g a.i./ha",67.45%
CCNc1nc(Cl)nc(NC(C)C)n1 [atrazine],inhibition at 600 g/ha,"[3]; Setaria viridis, 504 h, Table 8, 600 g a.i./ha, post-emergence, 21 days after treatment, read-out: Fresh weight inhibition rate %, B single agent",26.1%
same,inhibition at 750 g/ha,"[3]; Setaria viridis, 504 h, Table 8, post-emergence, 21 days after treatment, read-out: Fresh weight inhibition rate %, B single agent",33%
same,inhibition at 800 g/ha,"[3]; Setaria viridis, 504 h, Table 8, 800 g a.i./ha, post-emergence, 21 days after treatment, read-out: Fresh weight inhibition rate %, B single agent",41.6%
CCSC(C)CC1CC(=O)C(/C(CC)=N/OC/C=C/Cl)=C(O)C1 (stereo not drawn) [clethodim],inhibition at 25 g/ha,"[4]; Alopecurus japonicus, 504 h, Table 5, post-emergence, 21 days after treatment, read-out: Fresh weight inhibition rate %, B single agent",7.52%
same,inhibition at 40 g/ha,"[4]; Alopecurus japonicus, 504 h, Table 5, 40 g a.i./ha, post-emergence, 21 days after treatment, read-out: Fresh weight inhibition rate %, B single agent",34.8%
same,inhibition at 60 g/ha,"[4]; Alopecurus japonicus, 504 h, Table 5, 60 g a.i./ha, post-emergence, 21 days after treatment, read-out: Fresh weight inhibition rate %, B single agent",43%
COC(=O)[C@@H](C)Oc1ccc(Oc2ncc(C(F)(F)F)cc2Cl)cc1 [haloxyfop-P-methyl],"Fresh weight inhibition rate %, B single agent",[4]; B 15 g a.i./ha,7.80%
same,"Fresh weight inhibition rate %, B single agent",[4]; B 25 g a.i./ha,15.29%
same,"Fresh weight inhibition rate %, B single agent",[4]; B 40 g a.i./ha,15.32%
same,"Fresh weight inhibition rate %, B single agent",[4]; B 60 g a.i./ha,27.52%
CC(C)c1ccc(NC(=O)N(C)C)cc1 [isoproturon],"Fresh weight inhibition rate %, B single agent",[3]; B 400 g a.i./ha,22.19%
same,"Fresh weight inhibition rate %, B single agent",[3]; B 495 g a.i./ha,23.26%
same,"Fresh weight inhibition rate %, B single agent",[3]; B 600 g a.i./ha,33.26%
CCC(CC)Nc1c([N+](=O)[O-])cc(C)c(C)c1[N+](=O)[O-] [pendimethalin],"Fresh weight inhibition rate %, B single agent","[5]; Table 21, B 300 g a.i./ha",36.92%
same,"Fresh weight inhibition rate %, B single agent","[5]; Table 21, B 375 g a.i./ha",54.44%
CCc1cc(C)cc(CC)c1-c1c(OC(=O)C(C)(C)C)n2n(c1=O)CCOCC2 [pinoxaden],inhibition at 15 g/ha,"[4]; Alopecurus japonicus, 504 h, Table 7, 15 g a.i./ha, post-emergence, 21 days after treatment, read-out: Fresh weight inhibition rate %, B single agent",38.8%
same,inhibition at 20 g/ha,"[4]; Alopecurus japonicus, 504 h, Table 7, 20 g a.i./ha, post-emergence, 21 days after treatment, read-out: Fresh weight inhibition rate %, B single agent",42.3%
same,inhibition at 25 g/ha,"[4]; Alopecurus japonicus, 504 h, Table 7, post-emergence, 21 days after treatment, read-out: Fresh weight inhibition rate %, B single agent",58.7%
CCC(=O)Nc1ccc(Cl)c(Cl)c1 [propanil],inhibition at 500 g/ha,"[3]; Setaria viridis, 504 h, Table 6, 500 g a.i./ha, post-emergence, 21 days after treatment, read-out: Fresh weight inhibition rate %, B single agent",48.1%
same,inhibition at 750 g/ha,"[3]; Setaria viridis, 504 h, Table 6, post-emergence, 21 days after treatment, read-out: Fresh weight inhibition rate %, B single agent",58.1%
same,inhibition at 1000 g/ha,"[3]; Setaria viridis, 504 h, Table 6, 1000 g a.i./ha, post-emergence, 21 days after treatment, read-out: Fresh weight inhibition rate %, B single agent",69.1%
CCCN(CCC)c1c([N+](=O)[O-])cc(C(F)(F)F)cc1[N+](=O)[O-] [trifluralin],"Fresh weight inhibition rate %, B single agent","[2]; Table 39, B 156.25 g a.i./ha",12.50%
same,"Fresh weight inhibition rate %, B single agent","[2]; Table 39, B 250 g a.i./ha",48.67%
same,"Fresh weight inhibition rate %, B single agent","[2]; Table 39, B 375 g a.i./ha",62.58%
